pIC50: −log10 of the molar value. Read-outs that look alike come from different tables or passages of the source. Bridge positions count the residues as written; N and C are the ends. Square brackets hold non-standard residues; d marks the D form. Peptide text beside a SMILES is read from it. * marks the point of attachment. Cit = NC(=O)NCCC[C@H](N)C(=O)O; Pentanoyl = CCCCC(=O)*
Assays:
PCSK9 = PCSK9 (Homo sapiens, UniProt Q8NBP7); assay: PCSK9/EGF(A) TR-FRET binding assay; conditions: TR-FRET, read-out: PCSK9/EGF(A) IC50
Sequence of PCSK9 (Q8NBP7 153-692): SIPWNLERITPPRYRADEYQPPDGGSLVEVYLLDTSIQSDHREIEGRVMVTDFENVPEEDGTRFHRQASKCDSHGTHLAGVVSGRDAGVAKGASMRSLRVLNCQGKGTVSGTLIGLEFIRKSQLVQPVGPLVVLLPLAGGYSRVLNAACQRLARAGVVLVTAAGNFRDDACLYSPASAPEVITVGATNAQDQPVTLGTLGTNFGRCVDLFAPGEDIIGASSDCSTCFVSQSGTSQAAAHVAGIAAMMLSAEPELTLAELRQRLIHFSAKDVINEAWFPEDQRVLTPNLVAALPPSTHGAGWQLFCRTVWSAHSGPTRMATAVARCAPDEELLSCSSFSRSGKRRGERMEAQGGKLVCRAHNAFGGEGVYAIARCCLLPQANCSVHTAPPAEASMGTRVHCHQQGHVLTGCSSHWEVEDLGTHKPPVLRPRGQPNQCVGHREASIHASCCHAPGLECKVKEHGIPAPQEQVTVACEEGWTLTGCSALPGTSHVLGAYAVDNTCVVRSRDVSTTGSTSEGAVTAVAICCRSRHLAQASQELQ
Sequence of PCSK9 (Q8NBP7 31-152 partner limits assumed): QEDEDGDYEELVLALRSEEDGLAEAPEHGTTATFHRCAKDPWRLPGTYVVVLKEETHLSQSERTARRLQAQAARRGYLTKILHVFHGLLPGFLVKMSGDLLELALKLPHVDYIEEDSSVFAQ

PCSK9Δhelix = target: T1, PCSK9Δhelix (Homo sapiens, UniProt Q8NBP7); assay: PCSK9Δhelix/Ab20 TR-FRET binding assay; conditions: TR-FRET, read-out: PCSK9Δhelix/Ab20 IC50
T1 construct: Human PCSK9 construct M1-Q692 with an engineered TEV site (residue deletion Y166, R167); made in house; host or cells: CHO
T1 sequence (Q8NBP7 with tags, fused parts or gaps limits assumed): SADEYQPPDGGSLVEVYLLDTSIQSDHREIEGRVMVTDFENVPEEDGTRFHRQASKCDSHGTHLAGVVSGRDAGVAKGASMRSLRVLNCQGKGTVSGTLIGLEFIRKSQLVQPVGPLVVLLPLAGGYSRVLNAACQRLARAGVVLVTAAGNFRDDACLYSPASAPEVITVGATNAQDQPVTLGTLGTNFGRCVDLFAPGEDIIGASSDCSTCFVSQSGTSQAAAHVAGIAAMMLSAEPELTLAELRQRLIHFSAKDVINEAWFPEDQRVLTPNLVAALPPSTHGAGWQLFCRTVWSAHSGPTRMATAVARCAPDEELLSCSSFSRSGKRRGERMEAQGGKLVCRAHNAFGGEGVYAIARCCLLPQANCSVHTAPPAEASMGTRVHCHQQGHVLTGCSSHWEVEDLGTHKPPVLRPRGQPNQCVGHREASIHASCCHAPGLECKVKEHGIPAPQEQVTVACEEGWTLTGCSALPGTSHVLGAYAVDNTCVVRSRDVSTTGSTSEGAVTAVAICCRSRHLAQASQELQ
T1 sequence (Q8NBP7 31-152 partner limits assumed): as the sequence (Q8NBP7 31-152 partner limits assumed) above
Description: (§1) The former was based on a TF-FRET assay to measure the association of the EGF(A) domain of the LDLR to PCSK9 (“PCSK9/EGF(A) binding assay”) whilst the latter was based on a TR-FRET assay to measure binding of Ab20 to PCSK9Δhelix (“PCSK9Δhelix/Ab20 binding assay”).
(§2) The ability of compounds to inhibit binding to PCSK9 was evaluated with a panel of time-resolved fluorescence resonance energy transfer (TR-FRET) binding assays. […] The PCSK9Δhelix/Ab20 binding assay evaluated the ability of compounds to compete with Ab20 for binding to the N-terminal groove region in a His-tagged, PCSK9Δhelix construct. […] Signal generation in the PCSK9 binding assays was dependent upon the binding interaction to bring into close proximity the His-tag on the PCSK9 and the Fc-tag on the ligand. Anti-His-APC was bound to the His-tag, and anti-Fc-europium was bound to the Fc-tag. When these two antibodies were in close proximity and were irradiated with light at 340 nm, the europium was excited and emitted energy at 615 nm. This energy was taken up by the APC and was emitted as light at 665 nm. Compounds that competed with the ligand reduced the energy transfer and thus the emission at 665 nm. In the His-EGFA-Fc molecule in the counterscreen, the two tags were always in close proximity, thus any reduction in emission at 665 nm was due to interference with the detection system.
(§3) Compounds were solubilized and dilutions were prepared in DMSO. […] The plate was centrifuged to mix the well contents and allowed to incubate for 30 min. […] The TR-FRET signal was read on a ViewLux reader (PerkinElmer) with excitation at 340 nm and emission at 615 and 665 nm with a 50-μs time delay between excitation and measurement of emission. The TR-FRET ratio was calculated as the fluorescence emission at 665 nm divided by the fluorescence emission at 615 nm. The normalized TR-FRET ratios were plotted as a function of the compound concentrations, and the IC50 values were determined using a 4-parameter logistic regression.
(§4) In black 1536-well assay plates (MaKO, Aurora® Microplates, Whitefish, Mont.), 40 nL of peptide in DMSO were preincubated with 2 μL His-tagged PCSK9 plus anti-His-allophycocyanin in assay buffer (50 mM Tris-HCl, pH 7.5, 150 mM NaCl, 2 mM CaCl2, 0.01% Tween®-20, 0.1% bovine gamma globulins, and protease inhibitor cocktail) for 30 min. Then 2 μL of Fc-tagged ligand and anti-Fc-europium in assay buffer were added and allowed to incubate for 2 h.

His-EGF(A)-Fc = His-EGF(A)-Fc TR-FRET counterscreen; conditions: TR-FRET counterscreen
Description: as §1, §2, §3, §4

[1] = Table 8D, disulfide-cyclized extension peptides
[2] = Table 8D, * = some inhibition at highest concentrations, not sufficient to fit an IC50

Row | Molecule | pIC50 (PCSK9; [1]) | pIC50 (PCSK9Δhelix; [1]) | pIC50 (His-EGF(A)-Fc; [2]) | pIC50 (PCSK9; Table 8E, additional compounds) | pIC50 (PCSK9Δhelix; Table 8E, additional compounds) | pIC50 (His-EGF(A)-Fc; Table 8E, additional compounds)
1 | CC[C@H](C)[C@@H]1NC(=O)[C@H](CCCNC(=N)N)NC(=O)[C@H](CCC(N)=O)NC(=O)[C@H](CC(C)C)NC(=O)[C@H](CC(N)=O)NC(=O)[C@H](C)NC(=O)[C@@H]2CCCN2C(=O)[C@H](CC(C)C)NC(=O)[C@H](CCCNC(=N)N)NC(=O)[C@@H](NC(C)=O)CSSC[C@@H](C(N)=O)NC(=O)[C@@H]2CCCN2C(=O)[C@H](CC(C)C)NC(=O)CNC1=O [Compound 76] (Ac-CRLPANLQRIGLPC-NH2; disulfide 1-14) | < 4.30 | 4.31 | < 4.30 |  |  | 
2 | CC[C@H](C)[C@@H]1NC(=O)[C@H](CCCNC(=N)N)NC(=O)[C@H](CCC(N)=O)NC(=O)[C@H](CC(C)C)NC(=O)[C@H](CC(N)=O)NC(=O)[C@H](Cc2c[nH]c3ccccc23)NC(=O)[C@@H]2CCCN2C(=O)[C@H](CC(C)C)NC(=O)[C@H](CCCNC(=N)N)NC(=O)[C@@H](NC(C)=O)CSSC[C@@H](C(N)=O)NC(=O)[C@@H]2CCCN2C(=O)[C@H](CC(C)C)NC(=O)[C@H](C)NC1=O [Compound 70] (Ac-CRLPWNLQRIALPC-NH2; disulfide 1-14) | < 4.30 | 5.14 | < 4.30 |  |  | 
3 | CC[C@H](C)[C@@H]1NC(=O)[C@H](CCCNC(N)=O)NC(=O)[C@H](CCC(N)=O)NC(=O)[C@H](CC(C)C)NC(=O)[C@H](CC(N)=O)NC(=O)[C@H](Cc2c[nH]c3ccccc23)NC(=O)[C@@H]2CCCN2C(=O)[C@H]([C@@H](C)CC)NC(=O)[C@H](Cc2ccccc2)NC(=O)[C@@H](NC(=O)CNC(=O)[C@H](CO)NC(C)=O)CSSC[C@@H](C(N)=O)NC(=O)[C@@H]2CCCN2C(=O)[C@H](CC(C)C)NC(=O)CNC1=O [Compound 36] (Ac-SGCFIPWNLQ[Cit]IGLPC-NH2; disulfide 3-16) | < 4.30 | < 4.30 | < 4.30 |  |  | 
4 | CC[C@H](C)[C@@H]1NC(=O)[C@@H](CCCNC(=N)N)NC(=O)[C@H](CCC(N)=O)NC(=O)[C@H](CC(C)C)NC(=O)[C@H](CC(N)=O)NC(=O)[C@H](Cc2c[nH]c3ccccc23)NC(=O)[C@@H]2CCCN2C(=O)[C@H](CC(C)C)NC(=O)[C@H](CCCNC(=N)N)NC(=O)[C@@H](NC(C)=O)CSSC[C@@H](C(N)=O)NC(=O)[C@@H]2CCCN2C(=O)[C@H](CC(C)C)NC(=O)CNC1=O [Compound 102] (Ac-CRLPWNLQ[dR]IGLPC-NH2; disulfide 1-14) | < 4.30 | < 4.30 | < 4.30 |  |  | 
5 | Ac-DLMPWNLVRIGLPR-NH2 [Compound 160] |  |  |  | ≤ 4.30 | 4.72 | ≤ 4.30
6 | CC[C@H](C)[C@@H]1NC(=O)[C@H](CCCNC(=N)N)NC(=O)[C@H](CCC(N)=O)NC(=O)[C@H](CC(C)C)NC(=O)[C@H](CC(N)=O)NC(=O)[C@H](Cc2c[nH]c3ccccc23)NC(=O)[C@@H]2CCCN2C(=O)[C@H](CC(C)C)NC(=O)[C@H](CCCNC(=N)N)NC(=O)[C@@H](NC(=O)CNC(=O)[C@H](CO)NC(C)=O)CSSC[C@@H](C(N)=O)NC(=O)[C@@H]2CCCN2C(=O)[C@H](CC(C)C)NC(=O)CNC1=O [Compound 30] (Ac-SGCRLPWNLQRIGLPC-NH2; disulfide 3-16) | < 4.30 | 6.02 | < 4.30 |  |  | 
7 | CCCCC(=O)N[C@@H](Cc1c[nH]c2ccccc12)C(=O)N[C@@H](CC(N)=O)C(=O)N[C@@H](CC(C)C)C(=O)N[C@H](C(=O)N[C@@H](CCCNC(=N)N)C(=O)N[C@H](C(=O)NCC(=O)N[C@@H](CC(C)C)C(=O)N[C@@H](CC(C)C)C(=O)N[C@@H](CCCNC(=N)N)C(=O)O)[C@@H](C)CC)C(C)C [Compound 152] (Pentanoyl-WNLVRIGLLR-OH) |  |  |  | 4.37 | 4.85 | ≤ 4.30
8 | CC[C@H](C)[C@@H]1NC(=O)[C@H](C)NC(=O)[C@H](CCC(N)=O)NC(=O)[C@H](CC(C)C)NC(=O)[C@H](CC(N)=O)NC(=O)[C@H](Cc2c[nH]c3ccccc23)NC(=O)[C@@H]2CCCN2C(=O)[C@H](CC(C)C)NC(=O)[C@H](CCCNC(=N)N)NC(=O)[C@@H](NC(C)=O)CSSC[C@@H](C(N)=O)NC(=O)[C@@H]2CCCN2C(=O)[C@H](CC(C)C)NC(=O)CNC1=O [Compound 72] (Ac-CRLPWNLQAIGLPC-NH2; disulfide 1-14) | < 4.30 | 4.40 | < 4.30 |  |  | 

Source: patent publication US11034725B2, “Compositions and methods for treating cardiovascular disease” (Genentech, Inc., priority 2016, dated 2021)
